According to article PMC10857328, “Utilization of Biopolymer-Based Lutein Emulsion as an Effective Delivery System to Improve Lutein Bioavailability in Neonatal Rats” (Nutrients, 2024):

Tests used:
[1] = Daily dosing studies: body and tissue weights, observable illness; assay type: in vivo, neonatal Sprague-Dawley rats; settings: daily oral administration, 2 mg/kg, P5-P18, both daily dosing studies
Method: To determine the effects of daily consumption of CTA-stabilized lutein emulsion on tissue lutein status, two daily dosing studies were conducted. The procedures were approved by the Institutional Animal Care and Use Committee of the University of Alabama (Number: 21-02-4373, 4 February 2021). For daily dosing study 1 (Figure 1B), on P5, rat pups (n = 8–9/group) were randomly selected from the litters and received an oral dose of either free lutein (i.e., lutein ester dissolved in olive oil) or lutein emulsion both containing 2 mg/kg body weight of lutein. […] Dosing was repeated daily until P18. The dosage was determined from previous research in both rodent and human newborns and was also established as an Acceptable Daily Intake for lutein by the Joint Food and Agricultural Organization/World Health Organization. On P19, pups were euthanized. Rats are known to wean between P19 and P21 [47]. Blood from vena cava, liver, spleen, brain, eye, kidney, lung, white adipose tissue (WAT), and brown adipose tissue (BAT) were collected. Blood samples were centrifuged to obtain serum. Serum and collected tissues were frozen at −80 °C until analysis.
To mimic the human dietary intake of lutein, daily dosing study 2 was conducted (Figure 1C). […]

[2] = Acute dosing study: tissue lutein profiles; assay type: in vivo, neonatal Sprague-Dawley rats; settings: single oral dose, 10 mg/kg, free lutein or emulsion
Method: To determine the bioavailability of lutein in neonatal Sprague-Dawley rats, an acute dosing study was conducted. The procedure was approved by the Institutional Animal Care and Use Committee of the University of Alabama (Number: 21-08-4864, 23 September 2021). On postnatal day 10 (P10), neonatal rats were randomly selected from litters and received a single dose of either free lutein (i.e., lutein ester dissolved in olive oil) or lutein emulsion, both containing 10 mg/kg body weight of lutein. The dose was administered to the pup’s mouth via a pipette. The concentration of lutein ester in the oil phase was 0.004 g/mL. The lutein dosage was selected based on our pilot study and previous studies. It is higher than the dosage used in human newborns but is considered acceptable and safe to be used in pharmacokinetic studies in rodent models. At 0.5 h, 1 h, 2 h, 4 h, 6 h, 12 h, and 24 h after dosing, pups (n = 3/time point/group) were euthanized, and blood, liver, spleen, brain, and eye were collected. Serum was obtained by centrifuging blood samples and tissues were stored at −80 °C until time of analysis. A group of rat pups (n = 3) not receiving treatments were used to measure the baseline lutein concentrations. Throughout the study, maternal rats consumed a purified diet with no lutein (D19120501, Research Diets Inc, New Brunswick, NJ, USA) (Table 1).
Serum and tissue lutein concentration was determined using an ultra-performance liquid chromatography (UPLC) system (Waters, Milford, MA, USA) equipped with a photo-diode array detector (PDA)/MS/MS, according to our well-established methods with slight modification. As for the serum, 100 μL of the sample was incubated with 2 mL of 100% ethanol at room temperature for an hour for lipid extraction. For the tissues, ~0.1 g of the sample was weighed, homogenized, and incubated with 2 mL of 100% ethanol at room temperature for an hour. An amount of 1 mL of 5% (w/v) potassium hydroxide was added to the sample and incubated in a water bath at 60 °C for 45 min for saponification. […]

CC1=C[C@H](O)CC(C)(C)[C@H]1/C=C/C(C)=C/C=C/C(C)=C/C=C/C=C(C)/C=C/C=C(C)/C=C/C1=C(C)C[C@@H](O)CC1(C)C [lutein, Lutein]
Observable illness in the pups [1]: no observable illness
Earliest time point for lutein to be detectable in brain [2]: 12 h
Earliest time point for lutein to be detectable in eye [2]: 24 h
Earliest time point for lutein to be detectable in spleen [2]: 6 h
